What was measured:
[1] = target: T1, IDO (Homo sapiens, UniProt P14902); assay: SKOV3 kynurenine cell-based assay (IDO induced by IFN-γ); set-up: IDO expression was induced in the SKOV3 cells by the addition of 500 ng/ml IFN-γ; endogenous in cells; host or cells: SKOV3 (human ovarian adenocarcinoma), induced with IFN-γ; conditions: 48 hours, read-out: SKOV3 Kynurenine cell based assay pIC50 (converted)
Method in brief: (§1)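 A172 glioblastoma cells (TDO; 30,000/well) and SKOV3 ovarian cells (IDO induced with 500 ng/ml IFN-γ; 40,000/well) were grown in phenol red-free RPMI with 10% FCS, 2 mM L-glutamine and 500 μM L-tryptophan. They were incubated ±compound for 48 hours at 37 °C. Supernatant kynurenine was read with Ehrlich's reagent (5 min) at […] absorbance.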

[2] = target: T2, TDO (Homo sapiens, UniProt P48775); assay: A172 kynurenine cell-based assay; set-up: This assay utilised cancer cells which expressed either TDO or IDO; endogenous in cells; host or cells: A172 (human glioblastoma); conditions: A172 human glioblastoma cells, 48 hours, read-out: A172 Kynurenine cell based assay pIC50 (converted)
Method in brief: as §1

[3] = target: T1, IDO; assay: hIDO biochemical coupled assay; conditions: 45 μM L-tryptophan, read-out: hIDO biochemical assay pIC50 (converted)
[4] = target: T2, TDO; assay: hTDO biochemical coupled assay; conditions: 330 μM L-tryptophan, read-out: hTDO biochemical assay pIC50 (converted)
[5] = SKOV3 cells, IDO induced by 500 ng/ml IFN-γ
[6] = SKOV3 human ovarian adenocarcinoma cells, 500 ng/ml IFN-γ, 500 μM L-tryptophan

T1 sequence (P14902 whole entry): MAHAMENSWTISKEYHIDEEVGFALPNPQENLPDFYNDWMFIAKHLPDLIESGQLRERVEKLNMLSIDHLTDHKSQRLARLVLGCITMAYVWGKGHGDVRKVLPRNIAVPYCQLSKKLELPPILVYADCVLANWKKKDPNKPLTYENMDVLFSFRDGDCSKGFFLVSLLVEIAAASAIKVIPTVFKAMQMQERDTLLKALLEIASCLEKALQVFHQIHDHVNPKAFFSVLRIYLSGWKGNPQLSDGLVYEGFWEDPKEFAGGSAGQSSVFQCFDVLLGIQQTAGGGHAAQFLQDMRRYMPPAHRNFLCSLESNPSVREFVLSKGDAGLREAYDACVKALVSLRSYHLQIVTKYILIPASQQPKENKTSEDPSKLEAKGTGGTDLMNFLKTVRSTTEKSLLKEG
T2 sequence (P48775 whole entry): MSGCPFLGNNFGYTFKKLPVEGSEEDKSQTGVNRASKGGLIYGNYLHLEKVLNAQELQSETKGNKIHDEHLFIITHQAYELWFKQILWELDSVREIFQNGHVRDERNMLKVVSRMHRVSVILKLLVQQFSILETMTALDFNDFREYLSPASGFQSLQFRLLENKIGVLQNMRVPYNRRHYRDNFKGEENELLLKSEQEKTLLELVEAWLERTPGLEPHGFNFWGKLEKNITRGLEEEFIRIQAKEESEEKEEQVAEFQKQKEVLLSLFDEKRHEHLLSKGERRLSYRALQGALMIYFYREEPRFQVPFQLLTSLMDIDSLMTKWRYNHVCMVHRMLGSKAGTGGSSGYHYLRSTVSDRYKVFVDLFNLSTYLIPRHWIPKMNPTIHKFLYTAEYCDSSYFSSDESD

| Structure (SMILES) | IC50 [1, 5] | IC50 [1, 6] | IC50 ([2]; 500 μM L-tryptophan) | IC50 [2] | IC50 ([3]; 17 minutes, room temperature) | IC50 [3] | IC50 ([4]; 17 minutes, room temperature) | IC50 [4] |
| --- | --- | --- | --- | --- | --- | --- | --- | --- |
| CC1(C)CN(c2cc(Cl)cc3[nH]ncc23)CCN1S(C)(=O)=O [Compound 45, 6-chloro-4-(3,3-dimethyl-4-(methylsulfonyl)piperazin-1-yl)-1H-indazole] | 0.372 µM | < 3.16 µM | < 3.16 µM | 0.01 µM | < 3.16 µM | 0.447 µM | < 3.16 µM | 0.263 µM |
| NC(=O)C1CCCN(c2cc(Cl)cc3[nH]ncc23)C1 (centres unmarked) [Compound 199] |  | 32.4 to 100 µM | < 3.16 µM |  | > 100 µM |  | < 3.16 µM |  |
| CC(C)C(O)c1cc(Cl)cc2[nH]ncc12 (centres unmarked) [Compound 260] |  | 3.24 to 31.6 µM | < 3.16 µM |  | 3.24 to 31.6 µM |  | < 3.16 µM |  |
| CC(C)(C)CC(=O)Nc1cccc2[nH]ncc12 [Compound 4, N-(1H-indazol-4-yl)-3,3-dimethylbutanamide] |  | > 100 µM | 32.4 to 100 µM |  | > 100 µM |  | < 3.16 µM |  |
| CC(=O)NC1CCN(c2cc(Cl)cc3[nH]ncc23)C1 (centres unmarked) [Compound 198] |  | 3.24 to 31.6 µM | < 3.16 µM |  | 3.24 to 31.6 µM |  | < 3.16 µM |  |
| CC(=O)N1CCC(c2cc(C3CCCC3)cc3[nH]ncc23)CC1 [Compound 217] |  | 32.4 to 100 µM | > 100 µM |  | > 100 µM |  | > 100 µM |  |
| Cc1nc2c(n1C)CCN(c1cc(Cl)cc3[nH]ncc13)C2 [Compound 252] |  | 32.4 to 100 µM | < 3.16 µM |  | > 100 µM |  | < 3.16 µM |  |
| CN(C)S(=O)(=O)N1CCN(c2cccc3[nH]ncc23)CC1 [Compound 21] |  | 32.4 to 100 µM | 3.24 to 31.6 µM |  | > 100 µM |  | 3.24 to 31.6 µM |  |
| CNC(=O)C1CCN(c2cc(Cl)cc3[nH]ncc23)C1 (centres unmarked) [Compound 298] |  | 3.24 to 31.6 µM | 3.24 to 31.6 µM |  | 3.24 to 31.6 µM |  | < 3.16 µM |  |
| CC(=O)N1CCC2(CC1)CCN(c1cc(Cl)cc3[nH]ncc13)CC2 [Compound 352] |  | < 3.16 µM | < 3.16 µM |  | 3.24 to 31.6 µM |  | < 3.16 µM |  |
| O=c1[nH]c2ccccc2n1C1CCN(c2cc(Cl)cc3[nH]ncc23)CC1 [Compound 354] |  | 3.24 to 31.6 µM | < 3.16 µM |  | > 100 µM |  | < 3.16 µM |  |
| CNc1cc(-c2cc(Cl)cc3[nH]ncc23)ccn1 [Compound 279] |  | < 3.16 µM | < 3.16 µM |  | > 100 µM |  | < 3.16 µM |  |
| Clc1cc(N2CCN(c3nccs3)CC2)c2cn[nH]c2c1 [Compound 365] |  | 3.24 to 31.6 µM | < 3.16 µM |  | > 100 µM |  | < 3.16 µM |  |
| c1ccc(CNc2cccc3[nH]ncc23)cc1 [Compound 34] |  | 32.4 to 100 µM | 32.4 to 100 µM |  | > 100 µM |  | 3.24 to 31.6 µM |  |
| CS(=O)(=O)N1CCC(C(O)c2cc(Cl)cc3[nH]ncc23)CC1 (centres unmarked) [Compound 333] |  | 32.4 to 100 µM | 3.24 to 31.6 µM |  | > 100 µM |  | < 3.16 µM |  |
| CC1(C)CN(c2cc(Cl)cc3[nH]ncc23)CCN1S(N)(=O)=O [Compound 227] |  | < 3.16 µM | < 3.16 µM |  | < 3.16 µM |  | < 3.16 µM |  |
| CS(=O)(=O)N1C2CCC1CN(c1cc(Cl)cc3[nH]ncc13)C2 [Compound 232] |  | 3.24 to 31.6 µM | < 3.16 µM |  | 3.24 to 31.6 µM |  | < 3.16 µM |  |
| CC1(C)CN(c2cc(Br)cc3[nH]ncc23)CCN1S(C)(=O)=O [Compound 91] |  | < 3.16 µM | < 3.16 µM |  | < 3.16 µM |  | < 3.16 µM |  |
| CN(C)S(=O)(=O)c1ccc(-c2cc(Cl)cc3[nH]ncc23)cc1 [Compound 277] |  | 3.24 to 31.6 µM | < 3.16 µM |  | > 100 µM |  | < 3.16 µM |  |
| CC(=O)N1CCN(c2cc(C#N)cc3[nH]ncc23)CC1 [Compound 323] |  | 32.4 to 100 µM | 32.4 to 100 µM |  | > 100 µM |  | > 100 µM |  |
| CC(=O)N1CCC(n2cc(-c3cc(Cl)cc4[nH]ncc34)cn2)CC1 [Compound 348] |  | 3.24 to 31.6 µM | < 3.16 µM |  | > 100 µM |  | < 3.16 µM |  |
| Clc1cc(N2CCC(c3ccccc3)CC2)c2cn[nH]c2c1 [Compound 183] |  | 3.24 to 31.6 µM | < 3.16 µM |  | 3.24 to 31.6 µM |  | < 3.16 µM |  |
| CC(C)S(=O)(=O)N1CCN(c2cccc3[nH]ncc23)CC1 [Compound 22] |  | 32.4 to 100 µM | 3.24 to 31.6 µM |  | > 100 µM |  | 3.24 to 31.6 µM |  |
| OC(Cc1ccccc1)c1cc(Cl)cc2[nH]ncc12 (centres unmarked) [Compound 281] |  | 3.24 to 31.6 µM | < 3.16 µM |  | 3.24 to 31.6 µM |  | < 3.16 µM |  |
| CC(=O)N1CCN(c2cccc3[nH]ncc23)CC1 [Compound 11] |  | 32.4 to 100 µM | 3.24 to 31.6 µM |  | > 100 µM |  | 32.4 to 100 µM |  |

Now from value to molecule:

| IC50 [1, 5] | IC50 [1, 6] | IC50 ([2]; 500 μM L-tryptophan) | IC50 [2] | IC50 ([3]; 17 minutes, room temperature) | IC50 [3] | IC50 ([4]; 17 minutes, room temperature) | IC50 [4] | Structure (SMILES) |
| --- | --- | --- | --- | --- | --- | --- | --- | --- |
| > 10 µM | > 100 µM | < 3.16 µM | 0.832 µM | > 100 µM | > 257 µM | 3.24 to 31.6 µM | 3.63 µM | CC(C)Cn1cc(-c2cc(Cl)cc3[nH]ncc23)cn1 [Compound 396, 6-chloro-4-(1-isobutyl-1H-pyrazol-4-yl)-1H-indazole] |
|  | 3.24 to 31.6 µM | < 3.16 µM |  | 3.24 to 31.6 µM |  | < 3.16 µM |  | Clc1cc(N2CCC(c3ncco3)CC2)c2cn[nH]c2c1 [Compound 429] |
|  | 3.24 to 31.6 µM | < 3.16 µM |  | 3.24 to 31.6 µM |  | < 3.16 µM |  | CNC(=O)c1ccc(C2CCN(c3cc(Cl)cc4[nH]ncc34)CC2)cc1 [Compound 440] |
|  | > 100 µM | < 3.16 µM |  | 3.24 to 31.6 µM |  | < 3.16 µM |  | CC1(C)CN(c2cc(Cl)cc3[nH]ncc23)CCN1CCNS(C)(=O)=O [Compound 420] |
|  | > 100 µM | 32.4 to 100 µM |  | > 100 µM |  | > 100 µM |  | CS(=O)(=O)N1CCC(c2cc(N3CCCC3)cc3[nH]ncc23)CC1 [Compound 383] |
|  | < 3.16 µM | < 3.16 µM |  | > 100 µM |  | < 3.16 µM |  | CC(=O)Nc1ccc(C2CCN(c3cc(Cl)cc4[nH]ncc34)CC2)cc1 [Compound 441] |
|  | > 100 µM | < 3.16 µM |  | > 100 µM |  | < 3.16 µM |  | O=C1NCNC12CCN(c1cc(Cl)cc3[nH]ncc13)CC2 [Compound 397] |
|  | > 100 µM | < 3.16 µM |  | > 100 µM |  | < 3.16 µM |  | O=C1NC(=O)C(C2CCN(c3cc(Cl)cc4[nH]ncc34)CC2)N1 (centres unmarked) [Compound 443] |
|  | 3.24 to 31.6 µM | < 3.16 µM |  | < 3.16 µM |  | < 3.16 µM |  | CCS(=O)(=O)N1CCC(c2cc(Cl)cc3[nH]ncc23)CC1 [Compound 423] |
|  | 3.24 to 31.6 µM | < 3.16 µM |  | 3.24 to 31.6 µM |  | < 3.16 µM |  | OC1(c2cc(Cl)cc3[nH]ncc23)CCC(F)(F)CC1 [Compound 428] |
|  | 3.24 to 31.6 µM | < 3.16 µM |  | 3.24 to 31.6 µM |  | < 3.16 µM |  | CS(=O)(=O)c1ccc(-c2cc(Cl)cc3[nH]ncc23)c(Cl)c1 [Compound 384] |
|  | < 3.16 µM | < 3.16 µM |  | > 100 µM |  | < 3.16 µM |  | CS(=O)(=O)N1CC2(CN(c3cc(Cl)cc4[nH]ncc34)C2)C1 [Compound 395] |
|  | 3.24 to 31.6 µM | < 3.16 µM |  | > 100 µM |  | < 3.16 µM |  | Clc1cc(N2CCN(c3cccnc3)CC2)c2cn[nH]c2c1 [Compound 375] |
|  | > 100 µM | < 3.16 µM |  | 3.24 to 31.6 µM |  | < 3.16 µM |  | Clc1cc(N2CCC(c3cscn3)CC2)c2cn[nH]c2c1 [Compound 442] |

Source: patent US10590086B2, “Pharmaceutical compound” (IOmet Pharma Ltd., priority 2014, dated 2020)
